Source: patent US11185523B2, “Use of bipolar trans carotenoids with chemotherapy and radiotherapy for treatment of cancer” (DIFFUSION PHARMACEUTICALS LLC, priority 2016, dated 2021)

Assays:
newly diagnosed GBM = experiment: Phase ½ clinical trial of TSC with RT and TMZ in GBM; assay type: in vivo, human; details: for Observed Survival Rate with TSC Treatment (Kaplan-Meier): TSC 0.25 mg/kg IV 3 times per week about 45 minutes prior to RT, plus TMZ
Excerpt: To date, TSC has been used in 148 human subjects […] […] A Phase 1⁄2 clinical trial was recently completed examining TSC in patients with GBM. The Phase 1⁄2 clinical trial in GBM enrolled 59 patients with newly diagnosed disease that received TSC in conjunction with radiation therapy (RT) and temozolomide (TMZ). In the Phase I portion of the trial TSC was initially administered three times per week at half-dose to three patients prior to radiation. Six additional patients received full dose TSC for six weeks in combination with radiation. […] Fifty additional patients were enrolled in the Phase II trial at full dose TSC in combination with TMZ and RT. Four weeks after completion of RT, all patients resumed TMZ for five days every four weeks, but no further TSC was administered. More specifically, fifty-nine patients with newly-diagnosed GBM were enrolled. Patients received standard of care (SOC) radiation therapy (RT) (2 Gy/day, 5 days/week for 6 weeks) and TMZ (75 mg/m2) starting within 5 weeks after a surgical resection of their tumor, if such surgery were possible. Patients receiving only needle biopsies (i.e., no surgery) were also enrolled. In addition to the SOC, TSC was administered 3 times per week, 0.25 mg/kg IV, usually on Monday, Wednesday and Friday, about 45 minutes prior to the RT sessions. Four weeks after completion of RT, patients began chemotherapy with TMZ for 5 days of the first week of a 4 week cycle. This continued for 6 such cycles. No TSC was administered during this chemotherapy.

[1] = Absorption into blood stream after intramuscular injection with gamma cyclodextrin; assay type: in vivo, rat; details: injected intramuscularly, rats
Excerpt: The use of gamma-cyclodextrin with TSC increases the solubility of TSC in water by 3-7 times. […] The incorporation of the gamma cyclodextrin also allows for TSC to be absorbed into the blood stream when injected intramuscularly. Absorption is quick, and efficacious blood levels of TSC are reached quickly (as shown in rats).

Compound: CC(/C=C/C=C(\C)C(=O)[O-])=C\C=C\C=C(C)\C=C\C=C(/C)C(=O)[O-].[Na+].[Na+] [TSC, trans sodium crocetinate]
- Observed Survival Rate with TSC Treatment (Kaplan-Meier) (newly diagnosed GBM; 1 year): 71.2%
- Observed Survival Rate with TSC Treatment (Kaplan-Meier) (newly diagnosed GBM; 2 years): 36.3%
- reduction in tumor size (newly diagnosed GBM; 37 patients with partial resection or no resection, MRI): vast majority of these 37 patients showed reduction in tumor size
- survival at 2 years vs historical controls (newly diagnosed GBM; all groups of patients administered TSC in addition to SOC treatment): better survival at 2 years
- survival greater than rate in historical trial (newly diagnosed GBM; at both 1 and 2 years): 10%
- survivability at two years (newly diagnosed GBM; biopsy-only patients): 42.9%
- patients showing complete elimination of tumors (newly diagnosed GBM; full-dose patients): ~20%
- effect on glioblastoma multiforme tumors (newly diagnosed GBM; low dose (0.25 mg/kg) 45 minutes before radiation): effective
- dose-limiting toxicities (newly diagnosed GBM; nine patients, Phase I portion, half-dose and full dose TSC with radiation): No dose-limiting toxicities were identified
- increase in chance of survival at two years (newly diagnosed GBM; subgroup of patients considered inoperable, vs control): over 100%
- alive at two years (newly diagnosed GBM; subgroup of patients considered inoperable, less than 20 percent in the control): 40%
- absorption into the blood stream [1]: quick
